Assay results: patent US10023593B2, “ALK kinase inhibitor, and preparation method and uses thereof” (BEIJING PEARL BIOTECHNOLOGY LIMITED LIABILITY COMPANY, priority 2014, dated 2018)
pIC50: −log10 of the molar value.

Key:
Wild Type ALK kinase = biological target: T1, Wild Type ALK kinase (Homo sapiens, UniProt Q9UM73); experiment: HTRF KinEASE-TK assay, inhibitory activity on wild type ALK kinase; type: biochemical; details: wild type ALK 1 ng/μl, substrate 1 μM, 30° C. 35 minutes, read-out: Inhibition on ALK kinases (wildtype), IC50
T1 construct: purchased Sino-US Crown Bioscience, Inc. batch number ALK 20110607
Text: 1. Inhibitory Activities of the Compounds of the Present Invention on Wild Type ALK Kinases
? experimental method ? HTRF KinEASE™-TK Assay kit from Cisbio company was used to detect inhibitory activities of the compounds on wildtype ALK kinases (wild type ALK kinases).
(§1) ? instrument ? Envision 2104 plate reader from PerKinElmer company.
(§2) ? experiment material ? HTRF KinEASE™-TK Assay Kit (Cisbio company, catalog No. 62TK0PEC); Wild Type ALK kinase (produced by Sino-US Crown Bioscience, Inc., batch number ALK 20110607); DTT (Gibco BRL company, catalog No. 15508-012); MgCl2 (Sigma Aldrich company, catalog No. M-2670); ATP (Sigma Aldrich company, catalog No. A-7699); DMSO (AMRESCO company, catalog No. 0231); EDTA (AMRESCO company, catalog No. 0105); 96 wells plates (for diluting compounds) (CITOTEST company, catalog No. Ref36020096D); OptiPlate™-384 (White), PerkinElmer company, catalog No. P12-004)
(§3) ? experimental condition ? Compounds (the final concentration of DMSO was 1%), the reaction substrate (the final concentration was 1 μM), ATP (the final concentration was 2004), and Wildtype ALK kinases (the final concentration was 1 ng/μl) were mixed respectively in a final volume of 10 μl reaction system (containing 5 mM MgCl2, 1× Kinase buffer, and 1 mM DTT). The mixture was reacted at 30° C. for 35 minutes after shaking for 30 seconds. After completion of the reaction, each well was added with 5 μl Sa-XL665 and 5 μl TK Antibody-Eu(K), and placed in the dark for 60 minutes to end the reaction after uniform mixing. The data was read from PerkinElmer EnVision plate reader ([…]), the 665/615 ratio was calculated, and the data was analyzed.
(§4) ? tested samples ? Compounds from the examples.
(§5) ? data analysis ? Minimum 665/615 ratio (Rmin, 665/615 ratio under the condition that 10.4 μM positive control drug LDK-378 was added)
(§6) Maximum 665/615 ratio (Rmax, 665/615 ratio under the condition that no compound was added)
(§7) Tested 665/615 ratio (Rcompound, 665/615 ratio under the condition that a given concentration of compound was added) Inhibition rate (%)=[1−(Rcompound−Rmin)/(Rmax−Rmin)]×100
(§8) ? data processing ? IC50 of compounds was calculated by using XLfit program in Excel.

NCI-H2228 cell line = experiment: CellTiter-Glo cell proliferation inhibition on NCI-H2228 cell line; type: cell-based; details: Homo sapiens, NCI-H2228, 96 h, NCI-H2228 cells, 5000 cells/well, 4 days drug treatment
Procedure: 3. Cell Proliferation Inhibitory Activities of the Compounds of the Present Invention on NCI-H2228 Cell Line
? experimental method ? CellTiter-Glo® Luminescent Cell Viability Assay kit from Promega company was used to detect cell proliferation inhibitory activities of the compounds on NCI-H2228 cell line.
? instrument ? Envision 2104 plate reader from PerKinElmer company; Vi-Cell XR cell counter from Beckman Counter company; MCO-18AIC CO2 incubator from SANYO company.
? experiment material ? CellTiter-Glo® Luminescent Cell Viability Assay Kit (Promega company, catalog No. G7573); NCI-H2228 cell line (ATCC, catalog No. CRL-5935); RPMI-1640 medium (HyClone company, catalog No. SH30809.01B); fetal bovine serum (FBS) (Gibco company, catalog No. 10099-141); trypsin (Trypsin) (Gibco company, catalog No. 25200-072); PBS (HyClone company, catalog No. SH30256.01B); 96 wells cell culture plate (Corning company, catalog No. 3610); DMSO (AMRESCO company, catalog No. 0231); 96 wells plates (for diluting compounds) (CITOTEST company, catalog No. Ref36020096D);
? experimental condition ? NCI-H2228 cells in exponential growth phase were collected and treated with trypsin (Trypsin), and viable cells were counted by Vi-Cell XR cell counter. Cell suspension was adjusted to 62500 cells/ml with culture medium (RPMI-1640+10% FBS). 80 μl cell suspension was added into each well of 96 wells cell culture plate so that the final cell number of NCI-H2228 cells was 5000 cells/well. The cells were cultivated in an incubator with an atmosphere of 37° C., 5% CO2 and 95% humidity for 2 hours and then each well was added with 20 μl compounds in RPMI-1640 medium solution (the final concentration of DMSO was 0.5%). 4 days after drug treatment, each well was added with 50 μl CellTiter-Glo solution which was previously thawed and equilibrated to room temperature, and mixed for 2 minutes with microplate shaker. After placing at room temperature for 10 minutes, luminescence value was measured by PerkinElmer Envision 2104 plate reader and the data was analyzed.
? tested samples ? Compounds of the examples.
? data analysis ? Luminescence value of DMSO solvent control (Vvehicle control, which is the mean luminescence value from DMSO solvent control group)
Tested luminescence value (Vsample, which is the luminescence value from given concentration of compounds group) Inhibition rate (%)=(1−Vsample/Vvehicle control)×100
as §8

L1196M mutant ALK kinase = biological target: T2, L1196M mutant ALK kinase (Homo sapiens, UniProt Q9UM73, L1196M); experiment: HTRF KinEASE-TK assay, inhibitory activity on L1196M mutant ALK kinase; type: biochemical; details: L1196M mutant ALK 1 ng/μl, substrate 1 μM, ATP 5 μM, 30° C. 35 minutes, read-out: Inhibition on ALK kinases (L1196M mutant), IC50
T2 construct: purchased Sino-US Crown Bioscience, Inc. batch number ALKm_20110923
Text: 2. Inhibitory Activities of the Compounds of the Present Invention on L1196M Mutant ALK Kinases
? experimental method ? HTRF KinEASE™-TK Assay kit from Cisbio company was used to detect inhibitory activities of the compounds on L1196M mutant ALK kinases.
as §1
as §2, with “L1196M mutant” for “Wild Type”, “ALKm_20110923);” for “ALK 20110607);”, “A-7699, batch number 051M7014V);” for “A-7699);”
as §3, with “5 μM),” for “2004),”, “L1196M mutant” for “Wildtype”
as §4, §5, §6, §7, §8

T2 sequence (Q9UM73 19-1620 L1196M): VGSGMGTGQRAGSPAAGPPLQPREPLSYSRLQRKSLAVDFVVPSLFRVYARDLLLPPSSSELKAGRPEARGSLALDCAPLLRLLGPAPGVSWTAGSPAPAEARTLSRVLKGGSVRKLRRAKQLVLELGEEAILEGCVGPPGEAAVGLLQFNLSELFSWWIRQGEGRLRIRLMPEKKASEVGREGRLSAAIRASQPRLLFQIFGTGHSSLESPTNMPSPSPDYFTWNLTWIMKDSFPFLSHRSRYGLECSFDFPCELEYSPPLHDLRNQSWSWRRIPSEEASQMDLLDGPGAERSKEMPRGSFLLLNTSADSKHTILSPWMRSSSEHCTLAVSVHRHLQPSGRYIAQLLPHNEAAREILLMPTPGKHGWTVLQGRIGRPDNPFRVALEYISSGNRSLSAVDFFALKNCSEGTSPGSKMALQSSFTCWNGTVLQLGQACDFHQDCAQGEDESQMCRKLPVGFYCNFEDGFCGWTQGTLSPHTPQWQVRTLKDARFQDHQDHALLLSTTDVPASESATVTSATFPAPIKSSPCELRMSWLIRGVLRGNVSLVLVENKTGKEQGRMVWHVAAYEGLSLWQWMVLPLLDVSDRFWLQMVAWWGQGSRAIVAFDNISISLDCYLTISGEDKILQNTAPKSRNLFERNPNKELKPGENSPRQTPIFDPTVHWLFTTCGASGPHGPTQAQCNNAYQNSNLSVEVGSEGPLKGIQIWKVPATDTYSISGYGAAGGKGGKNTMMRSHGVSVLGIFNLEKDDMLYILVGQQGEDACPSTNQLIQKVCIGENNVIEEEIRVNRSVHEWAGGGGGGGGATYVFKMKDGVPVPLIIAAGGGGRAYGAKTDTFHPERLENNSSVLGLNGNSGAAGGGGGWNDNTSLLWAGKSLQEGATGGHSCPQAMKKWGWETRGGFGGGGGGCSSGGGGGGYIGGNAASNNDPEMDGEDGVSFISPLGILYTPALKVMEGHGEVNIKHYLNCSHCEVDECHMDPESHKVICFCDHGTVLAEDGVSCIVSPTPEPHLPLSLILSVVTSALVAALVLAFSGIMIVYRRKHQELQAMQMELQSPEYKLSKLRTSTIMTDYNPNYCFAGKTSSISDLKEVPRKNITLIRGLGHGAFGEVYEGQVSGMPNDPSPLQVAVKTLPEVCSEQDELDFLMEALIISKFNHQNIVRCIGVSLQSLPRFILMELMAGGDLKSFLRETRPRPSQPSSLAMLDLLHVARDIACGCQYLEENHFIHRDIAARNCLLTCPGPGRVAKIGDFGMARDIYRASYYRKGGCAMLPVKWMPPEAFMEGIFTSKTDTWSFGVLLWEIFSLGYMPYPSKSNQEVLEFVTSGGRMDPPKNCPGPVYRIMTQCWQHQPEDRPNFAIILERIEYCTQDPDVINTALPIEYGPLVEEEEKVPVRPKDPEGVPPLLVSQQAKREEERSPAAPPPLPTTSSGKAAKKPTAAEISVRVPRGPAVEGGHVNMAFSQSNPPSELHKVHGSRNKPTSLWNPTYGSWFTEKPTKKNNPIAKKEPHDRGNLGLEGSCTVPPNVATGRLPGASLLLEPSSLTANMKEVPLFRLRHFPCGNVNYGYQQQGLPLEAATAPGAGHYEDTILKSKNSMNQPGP
T1 sequence (Q9UM73 19-1620): as the sequence (Q9UM73 19-1620 L1196M) above, with M1178L counted along it

Row | pIC50 (Wild Type ALK kinase) | pIC50 (NCI-H2228 cell line) | pIC50 (L1196M mutant ALK kinase) | SMILES
1 | 7.17 | 6.88 | 7.37 | Cc1cc(Nc2ncc(Cl)c(Nc3cn(C)nc3S(=O)(=O)CC(C)C)n2)c(OC(C)C)cc1C1CN(S(C)(=O)=O)C1 [Final product 169]
2 | 7.70 | 5.95 | 7.16 | Cc1cc(Nc2nc(Nc3cc(C)c(C4CCN(S(C)(=O)=O)CC4)cc3C)ncc2Cl)n[nH]1 [Final product 217, reference compound]
3 | – | 6.86 | – | Cc1cc(Nc2ncc(Cl)c(Nc3cn(C)nc3S(=O)(=O)CC(C)C)n2)c(OC2CC2)cc1[C@H]1CC[C@@H](NC2CC2)CC1 [Final product 179]
4 | – | 7.10 | – | CCN1CCC(c2cc(OC3CCC3)c(Nc3ncc(Cl)c(Nc4cn(C)nc4S(=O)(=O)C(C)C)n3)cc2C)CC1 [Final product 122]
5 | – | 7.27 | – | Cc1cc(Nc2ncc(Cl)c(Nc3cn(C)nc3S(=O)(=O)C(C)C)n2)c(OC2CC2)cc1C1CCN(CCF)CC1 [Final product 145, 5-chloro-N^2-[2-cyclopropoxy-4-(1-(2-fluoroethyl)piperidin-4-yl)-5-methylphenyl]-N^4-[1-methyl-3-(isopropylsulfonyl)-1H-pyrazol-4-yl]-pyrimidin-2,4-diamine]
6 | – | 7.36 | – | Cc1cc(Nc2ncc(Cl)c(Nc3cn(C)nc3S(=O)(=O)C(C)C)n2)c(OC2CC2)cc1C1CCCN(C(C)(C)CO)C1 (stereo not drawn) [Final product 148]
7 | – | 7.39 | – | Cc1cc(Nc2ncc(Cl)c(Nc3cn(C)nc3S(=O)(=O)C(C)C)n2)c(OC2CC2)cc1C1CCN(C(C)(C)CO)CC1 [Final product 147, 2-(4-(4-(5-chloro-4-(3-(isopropylsulfonyl)-1-methyl-1H-pyrazol-4-amino)pyrimidin-2-amino)-5-cyclopropoxy-2-methylphenyl)piperidin-1-yl)-2-methyl-1-propanol]
8 | – | 6.89 | – | Cc1cc(Nc2ncc(Cl)c(Nc3cn(C)nc3S(=O)(=O)C(C)C)n2)c(OC(C)C)cc1C1CCCN(C(C)C)C1 (stereo not drawn) [Final product 128]
9 | – | 6.62 | – | Cc1cc(Nc2ncc(Cl)c(Nc3cn(C)nc3S(=O)(=O)C(C)C)n2)c(OC(C)C)cc1C1CC(C)(C)N(C)C(C)(C)C1 [Final product 98]
10 | – | 7.49 | – | CCOc1cc(C2CCN(CCOC)CC2)c(C)cc1Nc1ncc(Cl)c(Nc2cn(C)nc2S(=O)(=O)C(C)C)n1 [Final product 143, 5-chloro-N^2-(2-ethoxy-4-(1-(2-methoxyethyl)piperidin-4-yl)-5-methyl-phenyl)-N^4-(3-(isopropylsulfonyl)-1-methyl-1H-pyrazol-4)-pyrimidin-2,4-diamine]
11 | – | 7.11 | – | COCC(C)(C)N1CCC(c2cc(OC(C)C)c(Nc3ncc(Cl)c(Nc4cn(C)nc4S(=O)(=O)C(C)C)n3)cc2C)CC1 [Final product 85]
12 | – | 7.20 | – | Cc1cc(Nc2ncc(Cl)c(Nc3cn(C)nc3S(=O)(=O)C(C)C)n2)c(OC2CC2)cc1C1CCN2CCCC2C1 (stereo not drawn) [Final product 105]
13 | – | 7.07 | – | COc1cc(C2CCN(C(C)C)CC2)c(C)cc1Nc1ncc(Cl)c(Nc2cn(C)nc2S(=O)(=O)C(C)C)n1 [Final product 124]

Second part, the compound before the results:

Row | SMILES | pIC50 (Wild Type ALK kinase) | pIC50 (NCI-H2228 cell line) | pIC50 (L1196M mutant ALK kinase)
14 | CCN(CC)[C@H]1CC[C@@H](c2cc(OC3CC3)c(Nc3ncc(Cl)c(Nc4cn(C)nc4S(=O)(=O)C(C)C)n3)cc2C)CC1 [Final product 191] | 8.10 | 7.22 | 7.77
15 | Cc1cc(Nc2ncc(F)c(Nc3cn(C)nc3S(=O)(=O)C(C)C)n2)c(OC2CC2)cc1C1CCN(C)CC1 [Final product 70] | 8.70 | 7.09 | 7.74
16 | Cc1cc(Nc2ncc(Cl)c(Nc3cn(C)nc3S(=O)(=O)C(C)C)n2)c(OC2CC2)cc1C1CCN(C(C)C)CC1 [Final product 123, 5-chloro-N^2-[2-cyclopropoxy-4-(1-isopropylpiperidin-4-yl)-5-methyl-phenyl]-N^4-[1-methyl-3-(isopropylsulfonyl)-1H-pyrazol-4-yl]-pyrimidin-2,4-diamine] | 8.70 | – | 8.30
17 | CCN(CC)[C@H]1CC[C@@H](c2cc(OC3CC3)c(Nc3ncc(Cl)c(Nc4cn(C)nc4S(=O)(=O)CC(C)C)n3)cc2C)CC1 [Final product 177] | – | 7.14 | –
18 | Cc1cc(Nc2ncc(Cl)c(Nc3cn(C)nc3S(=O)(=O)C(C)C)n2)c(OC2CC2)cc1C1CCCN(C)CC1 (stereo not drawn) [Final product 106] | – | 7.47 | –
19 | Cc1cc(Nc2ncc(Cl)c(Nc3cn(C)nc3S(=O)(=O)C(C)C)n2)c(OC2CC2)cc1[C@H]1CC[C@H](N(C)C(C)C)CC1 [Final product 194] | – | 7.11 | –
20 | Cc1cc(Nc2ncc(Cl)c(Nc3cn(C)nc3S(=O)(=O)C(C)C)n2)c(OC2CC2)cc1[C@H]1CC[C@@H](NC2CC2)CC1 [Final product 195] | – | 6.94 | –
21 | Cc1cc(Nc2ncc(Cl)c(Nc3cn(C)nc3S(=O)(=O)C(C)C)n2)c(OC2CC2)cc1C1CCN(C)CC1Cl (stereo not drawn) [Final product 89] | – | 6.97 | –
22 | Cc1cc(Nc2ncc(Cl)c(Nc3cn(C)nc3S(=O)(=O)C(C)C)n2)c(OC2CC2)cc1[C@H]1CC[C@@H](NC(C)C)CC1 [Final product 197] | – | 7.14 | –
23 | CCOc1cc(C2CCN(C(C)(C)CO)CC2)c(C)cc1Nc1ncc(Cl)c(Nc2cn(C)nc2S(=O)(=O)C(C)C)n1 [Final product 150] | – | 7.37 | –
24 | CC(C)S(=O)(=O)c1nn(C)cc1Nc1nc(Nc2cc3c(cc2OC2CC2)CN(C)CC3)ncc1Cl [Final product 112] | – | 6.68 | –
